Source: US11479571B2 (priority 2016, dated 2022)

Experiments:
[1] = test system: Vesicular stomatitis virus (VSV) particles encoding luciferase and pseudotyped with EboV GP; experiment: microbe, parasite or virus in culture; assay type: cell-based, Ebola virus; conditions: for inhibition at 10 µM: compound concentration 10 μM; for inhibition at 2 µM: compound concentration 2 μM

With O=C(Nc1ccc(C(F)(F)F)cc1)N1CCN(Cc2ccc3nc(C(c4ccccc4)c4ccccc4)[nH]c3c2)CC1 the melting point was 172 °C.
For O=C(COc1ccc(Cl)cc1)N1CCN(Cc2ccc3nc(C(c4ccccc4)c4ccccc4)[nH]c3c2)CC1, the melting point was 194 °C.
CCOP(=O)(Cc1cccc(COc2ccccc2CN2CCN(Cc3ccc4nc(-c5cccc(C(F)(F)F)c5)[nH]c4c3)CC2)c1)OCC [Compound E59] showed an inhibition at 10 µM [1] of under 20%.
COC(=O)c1ccc(COc2ccccc2CN2CCN(C(=O)c3ccc4nc(-c5cccnc5)[nH]c4c3)CC2)cc1 [Compound E19, N1-[[2-[(4-methoxycarbonylphenyl)methoxy]phenyl]methyl]-N4-[2-(3-pyridyl)-benzimidazole-5-carbonyl]-piperazine] gave an inhibition at 10 µM [1] of under 20%.
For O=C(c1ccc2nc(-c3ccccc3)[nH]c2c1)N1CCN(Cc2ccc(C(F)(F)F)cc2)CC1, the melting point was 220 °C.
COC(=O)c1ccc(COc2ccccc2CN2CCN(Cc3ccc4nc(-c5ccccc5)[nH]c4c3)CC2)cc1 [Compound E11, N1-[[2-[(4-methoxycarbonylphenyl)methoxy]phenyl]methyl]-N4-[(2-phenyl-benzimidazol-5-yl)methyl]-piperazine] gave an inhibition at 10 µM [1] of 95%.
In the case of O=C(c1ccc2nc(-c3ccccn3)[nH]c2c1)N1CCN(Cc2ccc(OC(F)(F)F)cc2)CC1, the melting point is reported as 190 °C.
Molecule FC(F)(F)Oc1ccc(CN2CCN(Cc3ccc4nc(-c5ccccn5)[nH]c4c3)CC2)cc1 has a melting point of 64 °C.
With FC(F)(F)Oc1cccc(CN2CCN(Cc3ccc4nc(-c5ccccn5)[nH]c4c3)CC2)c1 the melting point was 65 °C.
O=C(OCc1ccccc1)N1CCN(C(=O)c2ccc3nc(-c4ccccn4)[nH]c3c2)CC1 showed a melting point of 165 °C.
In the case of FC(F)(F)Oc1cccc(CN2CCN(Cc3ccc4nc(-c5ccccc5)[nH]c4c3)CC2)c1 [Compound E29, N1-[3-(trifluoromethoxy)benzyl]-N4-[(2-phenyl-benzimidazol-5-yl)methyl]-piperazine], the inhibition at 2 µM [1] is reported as under 20%, the inhibition at 10 µM [1] is reported as 80% and the melting point is reported as 80 °C.
Molecule O=C(c1ccc2nc(C(c3ccccc3)c3ccccc3)[nH]c2c1)N1CCN(Cc2ccc(OC(F)(F)F)cc2)CC1 has a melting point of 120 °C.
Molecule Cc1ccc(NC(=O)N2CCN(Cc3ccc4nc(-c5cccnc5)[nH]c4c3)CC2)cc1 has a melting point of 174 °C.
Molecule FC(F)(F)Oc1cccc(CN2CCN(Cc3ccc4nc(C(c5ccccc5)c5ccccc5)[nH]c4c3)CC2)c1 has a melting point of 86 °C.
In the case of FC(F)(F)Oc1ccc(CN2CCN(Cc3ccc4nc(-c5cccnc5)[nH]c4c3)CC2)cc1, the melting point is reported as 88 °C.
COC(=O)c1ccc(COc2ccccc2CN2CCN(C(=O)c3ccc4nc(-c5ccccn5)[nH]c4c3)CC2)cc1 [Compound E20, N1-[[2-[(4-methoxycarbonylphenyl)methoxy]phenyl]methyl]-N4-[2-(2-pyridyl)-benzimidazole-5-carbonyl]-piperazine] showed an inhibition at 10 µM [1] of under 20% and a melting point of 96 °C.
O=C(COc1ccc(Cl)cc1)N1CCN(Cc2ccc3nc(-c4ccccn4)[nH]c3c2)CC1 gave a melting point of 138 °C.
FC(F)(F)Oc1cccc(CN2CCN(Cc3ccc4nc(-c5cccnc5)[nH]c4c3)CC2)c1 gave a melting point of 110 °C.
In the case of COC(=O)c1ccc(COc2ccccc2CN2CCN(Cc3ccc4nc(-c5ccc(C(F)(F)F)cc5)[nH]c4c3)CC2)cc1 [Compound E15, N1-[[2-[4-(trifluoromethyl)phenyl]-benzimidazol-5-yl]methyl]-N4-[[2-[(4-methoxycarbonylphenyl)methoxy]phenyl]methyl]-piperazine], the inhibition at 2 µM [1] is reported as 2% and the inhibition at 10 µM [1] is reported as 93.5%.
With COC(=O)c1ccc(COc2ccccc2CN2CCN(C(=O)c3ccc4nc(-c5ccccc5)[nH]c4c3)CC2)cc1 [Compound E17, N1-[[2-[(4-methoxycarbonylphenyl)methoxy]phenyl]methyl]-N4-(2-phenyl-benzimidazole-5-carbonyl)-piperazine] the inhibition at 10 µM [1] was under 20% and the melting point was 255 °C.
In the case of O=C(c1ccc2nc(-c3ccccn3)[nH]c2c1)N1CCN(Cc2cccc(OC(F)(F)F)c2)CC1, the melting point is reported as 100 °C.
FC(F)(F)c1ccc(CN2CCN(Cc3ccc4nc(-c5cccnc5)[nH]c4c3)CC2)cc1 gave a melting point of 138 °C.
In the case of O=C(c1ccc2nc(C(c3ccccc3)c3ccccc3)[nH]c2c1)N1CCN(Cc2cccc(OC(F)(F)F)c2)CC1, the melting point is reported as 76 °C.
O=C(Nc1ccc(C(F)(F)F)cc1)N1CCN(Cc2ccc3nc(-c4ccccn4)[nH]c3c2)CC1 [Compound E52, N1-[[2-(2-pyridyl)-benzimidazol-5-yl]methyl]-N4-[[4-(trifluoromethyl)phenyl]carbamoyl]-piperazine] gave an inhibition at 2 µM [1] of 64.3% and an inhibition at 10 µM [1] of 82.9%.
In the case of FC(F)(F)c1ccc(CN2CCN(Cc3ccc4nc(-c5ccccc5)[nH]c4c3)CC2)cc1, the melting point is reported as 178 °C.
For COC(=O)c1ccc(COc2ccccc2CN2CCN(Cc3ccc4nc(-c5cccc(C(F)(F)F)c5)[nH]c4c3)CC2)cc1 [Compound E16, N1-[[2-[3-(trifluoromethyl)phenyl]-benzimidazol-5-yl]methyl]-N4-[[2-[(4-methoxycarbonylphenyl)methoxy]phenyl]methyl]-piperazine], the inhibition at 2 µM [1] was 64.1%, the inhibition at 10 µM [1] was 91.6% and the melting point was 102 °C.
With COC(=O)c1ccc(COc2ccccc2CN2CCN(C(=O)c3ccc4nc(C(c5ccccc5)c5ccccc5)[nH]c4c3)CC2)cc1 [Compound E18, N1-(2-benzhydryl-benzimidazole-5-carbonyl)-N4-[[2-[(4-methoxycarbonylphenyl)methoxy]phenyl]methyl]-piperazine] the inhibition at 10 µM [1] was under 20% and the melting point was 196 °C.
Work on CCOP(=O)(Cc1ccc(COc2ccccc2CN2CCN(Cc3ccc4nc(-c5cccc(C(F)(F)F)c5)[nH]c4c3)CC2)cc1)OCC [Compound E57] yielded an inhibition at 10 µM [1] of under 20%.
In the case of FC(F)(F)c1ccc(CN2CCN(Cc3ccc4nc(C(c5ccccc5)c5ccccc5)[nH]c4c3)CC2)cc1 [Compound E22, N1-[(2-benzhydryl-benzimidazol-5-yl)methyl]-N4-[4-(trifluoromethyl)benzyl]-piperazine], the inhibition at 2 µM [1] is reported as under 20%, the inhibition at 10 µM [1] is reported as 80% and the melting point is reported as 236 °C.
For O=C(c1ccc2nc(C(c3ccccc3)c3ccccc3)[nH]c2c1)N1CCN(Cc2ccc(C(F)(F)F)cc2)CC1, the melting point was 148 °C.
In the case of COC(=O)c1ccc(COc2ccccc2CN2CCN(Cc3ccc4nc(-c5ccccn5)[nH]c4c3)CC2)cc1 [Compound E14, N1-[[2-[(4-methoxycarbonylphenyl)methoxy]phenyl]methyl]-N4-[[2-(2-pyridyl)-benzimidazol-5-yl]methyl]-piperazine], the inhibition at 10 µM [1] is reported as 80%.
